Source: patent US20080194546A1, “Pyrido-, Pyrazo- and Pyrimido-Pyrimidine Derivatives as mTOR Inhibitors” (KuDOS Pharmaceuticals Limited, priority 2005, published 2008)
Read-outs that look alike come from different tables or passages of the source.

Legend:
[1] = target: recombinant mTOR (FLAG-tagged, amino acid residues 1362 to 2549) (Homo sapiens, UniProt P42345); assay: Alternative Enzyme Assay: AlphaScreen, inhibition of phosphorylation by recombinant mTOR; type: biochemical; conditions: Alternative Enzyme Assay, read-out: IC50 values against mTOR
[2] = test system: phosphorylation of Serine 473 in Akt in MDA-MB-468 cells; assay: In Vitro phospho-Ser473 Akt Assay (Acumen Explorer); type: cell-based; conditions: Homo sapiens
[3] = MDA-MB-468, read-out: IC50 values against mTOR (phospho-Ser473 Akt assay)
[4] = MDA-MB-468 cells, 2 hours, read-out: IC50, phospho-Ser473 Akt assay (cellular IC50, measured by pAkt)

recombinant mTOR (FLAG-tagged, amino acid residues 1362 to 2549), sequence (P42345 1362-2549): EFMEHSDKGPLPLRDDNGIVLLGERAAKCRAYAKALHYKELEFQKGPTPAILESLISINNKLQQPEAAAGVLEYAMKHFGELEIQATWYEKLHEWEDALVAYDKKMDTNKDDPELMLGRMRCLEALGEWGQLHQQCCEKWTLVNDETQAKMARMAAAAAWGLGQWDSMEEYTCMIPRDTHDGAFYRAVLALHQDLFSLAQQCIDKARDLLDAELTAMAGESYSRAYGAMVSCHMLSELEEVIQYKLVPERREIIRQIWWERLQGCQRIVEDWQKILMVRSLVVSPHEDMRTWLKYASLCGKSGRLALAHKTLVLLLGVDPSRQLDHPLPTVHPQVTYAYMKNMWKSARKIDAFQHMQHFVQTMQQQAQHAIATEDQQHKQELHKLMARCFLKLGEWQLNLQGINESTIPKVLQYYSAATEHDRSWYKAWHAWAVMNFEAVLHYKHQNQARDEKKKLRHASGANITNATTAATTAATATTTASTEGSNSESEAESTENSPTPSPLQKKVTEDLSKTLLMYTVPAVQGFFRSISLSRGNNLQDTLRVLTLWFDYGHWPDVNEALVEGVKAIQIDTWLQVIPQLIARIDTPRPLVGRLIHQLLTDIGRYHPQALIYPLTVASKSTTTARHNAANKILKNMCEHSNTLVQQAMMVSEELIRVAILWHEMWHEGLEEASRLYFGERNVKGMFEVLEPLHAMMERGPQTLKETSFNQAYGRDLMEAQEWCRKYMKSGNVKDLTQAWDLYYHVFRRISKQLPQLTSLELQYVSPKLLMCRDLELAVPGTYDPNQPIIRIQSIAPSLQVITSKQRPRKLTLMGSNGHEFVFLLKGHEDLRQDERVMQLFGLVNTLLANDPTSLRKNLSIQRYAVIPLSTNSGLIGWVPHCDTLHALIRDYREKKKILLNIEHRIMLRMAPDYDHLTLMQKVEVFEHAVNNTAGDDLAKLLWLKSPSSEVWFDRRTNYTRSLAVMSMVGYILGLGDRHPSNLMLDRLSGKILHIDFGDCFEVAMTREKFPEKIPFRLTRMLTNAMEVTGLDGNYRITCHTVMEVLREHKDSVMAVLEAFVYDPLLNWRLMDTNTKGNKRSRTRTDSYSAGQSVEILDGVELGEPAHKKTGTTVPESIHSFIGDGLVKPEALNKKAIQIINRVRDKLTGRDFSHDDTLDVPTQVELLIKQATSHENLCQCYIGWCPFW

Row | Compound | IC50 ([1]; upper bounds) [µM] | IC50 [2, 3] [µM] | other results
1 | CC(C)CCCOc1ccc(-c2ccc3c(N4CCOCC4)nc(N4C[C@@H](C)O[C@@H](C)C4)nc3n2)cc1 [Example 1bx] | < 10 |  | 
2 | O=Cc1cccc(-c2nc(N3CCOCC3)c3ccc(-c4ccc(Cl)cc4)nc3n2)c1 [Example 9w] | < 10 |  | 
3 | COc1ccc(-c2ccc3c(N4CCOCC4)nc(-c4cccc([N+](=O)[O-])c4)nc3n2)cc1CO [Example 9c] | < 10 |  | IC50 [1]: < 0.3 µM
4 | COCc1cccc(-c2nc(N3CCOCC3)c3ccc(-c4ccc(Cl)cc4)nc3n2)c1 [Example 9z] | < 10 |  | 
5 | Clc1ccc(-c2ccc3c(N4CCOCC4)nc(-c4cccnc4)nc3n2)cc1 [Example 9t] | < 10 |  | 
6 | C[C@@H]1CN(c2nc(N3CCOCC3)c3ccc(-c4ccc(OCc5ccc(F)c(F)c5)cc4)nc3n2)C[C@H](C)O1 [Example 1bw] | < 10 |  | 
7 | CC(Oc1ccc(-c2ccc3c(N4CCOCC4)nc(N4C[C@@H](C)O[C@@H](C)C4)nc3n2)cc1)c1ccccc1 (some centres unmarked) [Example 1bv] | < 10 |  | 
8 | COc1cccc(-c2nc(N3CCOCC3)c3ccc(-c4ccc(Cl)cc4)nc3n2)c1 [Example 9u] | < 10 |  | 
9 | Cc1cccc(-c2nc(N3CCOCC3)c3ccc(-c4ccc(Cl)cc4)nc3n2)c1 [Example 9y] | < 10 |  | 
10 | C[C@@H]1CN(c2ccc3c(N4CCOCC4)nc(-c4ccc(Cl)cc4)nc3n2)C[C@H](C)O1 [Example 9s] | < 10 |  | 
11 | NC(=O)c1cccc(-c2nc(N3CCOCC3)c3ccc(-c4ccc(Cl)cc4)nc3n2)c1 [Example 9ac] | < 10 |  | 
12 | COc1ccc(-c2ccc3c(N4CCOCC4)nc(-c4cccc(CO)c4)nc3n2)cc1CO [Example 9ae] | < 10 |  | IC50 [1]: < 0.3 µM
13 | C[C@@H]1CN(c2nc(N3CCOCC3)c3ccc(-c4ccc(OCC(C)(C)CO)cc4)nc3n2)C[C@H](C)O1 [Example 1bp] | < 1 |  | 
14 | C[C@@H]1CN(c2nc(N3CCOCC3)c3ccc(-c4ccc(OCC(C)(C)C)cc4)nc3n2)C[C@H](C)O1 [Example 1bo] | < 1 |  | 
15 | FC(F)(F)c1cccc(-c2nc(N3CCOCC3)c3ccc(-c4ccc(Cl)cc4)nc3n2)c1 [Example 9p] | < 1 |  | 
16 | COc1ccc(-c2ccc3c(N4CCOCC4)nc(-c4cc(C(=O)O)cc([N+](=O)[O-])c4)nc3n2)cc1CO [Example 9b] | < 10 |  | IC50 [1]: < 0.3 µM
17 | C[C@@H]1CN(c2nc(N3CCOCC3)c3ccc(-c4ccc(OCCCO)cc4)nc3n2)C[C@H](C)O1 [Example 1bm] | < 1 |  | 
18 | C[C@@H]1CN(c2nc(N3CCOCC3)c3ccc(-c4ccc(OC5C=CCCC5)cc4)nc3n2)C[C@H](C)O1 (some centres unmarked) [Example 1bl] | < 10 |  | 
19 | Clc1ccc(-c2ccc3c(N4CCOCC4)nc(-c4ccco4)nc3n2)cc1 [Example 9x] | < 10 |  | 
20 | C[C@H]1COCCN1c1nc(N2CCOC[C@@H]2C)c2ccc(-c3ccc(F)nc3)nc2n1 [Example 11ah] |  | < 11 | 
21 | CNCCNc1nc(N2CCOC[C@@H]2C)c2ccc(-c3ccc(OC)c(CO)c3)nc2n1 [Example 28bv] |  | < 11 | 
22 | CC(C)C(=O)NCc1cc(-c2ccc3c(N4CCOC[C@@H]4C)nc(N4CCOC[C@@H]4C)nc3n2)ccc1F [Example 15w] |  | < 11 | 
23 | COc1cccc(-c2nc(N3CCOC[C@@H]3C)c3ccc(-c4ccc(OC)c(CO)c4)nc3n2)c1 [Example 29o] |  | < 11 | 

Row | Compound | IC50 ([1]; upper bounds) [µM] | IC50 [2, 3] [µM] | other results
24 | C/C=C/COc1ccc(-c2ccc3c(N4CCOCC4)nc(N4C[C@@H](C)O[C@@H](C)C4)nc3n2)cc1 [Example 1bq] | < 1 |  | 
25 | COCCNc1nc(N2CCOC[C@@H]2C)c2ccc(-c3ccc(OC)c(CO)c3)nc2n1 [Example 28by] |  | < 11 | 
26 | C[C@H]1COCCN1c1nc(N2CCOCC2)nc2nc(-c3ccc(N)nc3)ccc12 [Example 28dl] |  |  | IC50 [2, 4]: 0.295 µM
27 | COc1ccc(-c2ccc3c(N4CCOC[C@@H]4C)nc(N4CCC(N5CCCC5)CC4)nc3n2)cc1CO [Example 28ai] |  | < 11 | 
28 | C[C@H]1COCCN1c1nc(N2CCOC[C@@H]2C)c2ccc(-c3cccc(CS(C)(=O)=O)c3)nc2n1 [Example 14t] |  | < 11 | 
29 | COc1ccc(-c2ccc3c(N4CCOCC4C)nc(N4CCOC[C@@H]4C)nc3n2)cc1CNC1CCCCCCC1 (some centres unmarked) [Example 14bf] |  | < 0.1 | 
30 | CNC(=O)c1cccc(-c2ccc3c(N4CCOC[C@@H]4C)nc(N4CCOC[C@@H]4C)nc3n2)c1 [Example 11ap] |  |  | IC50 ([2]; MDA-MB-468 cells, compounds of Formula I(B), read-out: IC50 values against mTOR (phospho-Ser473 Akt assay)): < 0.1 µM
31 | COc1ccc(-c2ccc3c(N4CCOC[C@@H]4C)nc(N4CCOC[C@@H]4C)nc3n2)cn1 [Example 11n] |  | < 0.3 | 
32 | COc1ccc(-c2ccc3c(N4CCOC[C@@H]4C)nc(NCCN(C)C)nc3n2)cc1CO [Example 28cb] |  | < 11 | 
33 | COc1ccc(-c2ccc3c(N4CCOC[C@@H]4C)nc(-c4cccc(C)c4)nc3n2)cc1CO [Example 29n] |  | < 11 | 
34 | COCC(=O)NCc1cc(-c2ccc3c(N4CCOC[C@@H]4C)nc(N4CCOC[C@@H]4C)nc3n2)ccc1F [Example 15u] |  | < 11 | 
35 | C[C@H]1COCCN1c1nc(N2CCOC[C@@H]2C)c2ccc(-c3ccc(N)cc3)nc2n1 [Example 11az] |  | < 0.1 | 
36 | C[C@H]1COCCN1c1nc(N2CCOC[C@@H]2C)c2ccc(-c3cccnc3)nc2n1 [Example 11bu] |  | < 11 | 
37 | COc1ccc(-c2ccc3c(N4CCOC[C@@H]4C)nc(N4CCC(N5CCCCC5)CC4)nc3n2)cc1CO [Example 28z] |  | < 11 | 
38 | C[C@H]1COCCN1c1nc(N2CCOC[C@@H]2C)c2ccc(-c3ccc(CNCC(N)=O)o3)nc2n1 [Example 17j] |  | < 11 | 
39 | C[C@H]1COCCN1c1nc(N2CCOC[C@@H]2C)c2ccc(-c3ccc(F)c(CNC(=O)C(F)(F)F)c3)nc2n1 [Example 15z] |  | < 11 | 
40 | C[C@H]1COCCN1c1nc(N2CCOC[C@@H]2C)c2ccc(-c3cccc(C#N)c3)nc2n1 [Example 11aw] |  | < 11 | 
41 | C[C@@H]1CN(c2nc(N3CCOCC3)c3ccc(-c4ccc(OCc5ccccc5)cc4)nc3n2)C[C@H](C)O1 [Example 1bf] |  |  | IC50 [1]: < 0.3 µM
42 | Cc1ccc(-c2cnc3c(N4CCOC[C@@H]4C)nc(N4C[C@@H](C)O[C@@H](C)C4)nc3n2)cc1 [Example 22b] |  | < 11 | 
43 | COc1ccc(-c2ccc3c(N4CCOC[C@@H]4C)nc(N4CCC5CCCCC5C4)nc3n2)cc1CO (some centres unmarked) [Example 28ag] |  | < 11 | 
44 | COc1ccc(-c2ccc3c(N4CCOC[C@@H]4C)nc(NCCO)nc3n2)cc1CO [Example 28bs] |  | < 11 | 
45 | CC(C)C(=O)NCc1cccc(-c2ccc3c(N4CCOC[C@@H]4C)nc(N4CCOC[C@@H]4C)nc3n2)c1 [Example 15d] |  | < 11 | 
46 | COc1ccc(-c2ccc3c(N4CCOCC4)nc(-c4ccc(OC)c(CO)c4)nc3n2)cc1CO [Example 9q] | < 10 |  | 

Row | Compound | IC50 ([1]; upper bounds) [µM] | IC50 [2, 3] [µM] | other results
47 | C[C@H]1COCCN1c1nc(N2CCOC[C@@H]2C)c2ccc(-c3ccc(CNC4CC4)o3)nc2n1 [Example 17e] |  | < 11 | 
48 | COC(=O)c1cccc(-c2nc(N3CCOCC3)c3ccc(-c4ccc(Cl)cc4)nc3n2)c1 [Example 9ad] | < 1 |  | 
49 | CC(=O)NCc1cc(-c2ccc3c(N4CCOC[C@@H]4C)nc(N4CCOC[C@@H]4C)nc3n2)ccc1F [Example 15t] |  | < 11 | 
50 | CNC(=O)C1CCN(c2nc(N3CCOC[C@@H]3C)c3ccc(-c4ccc(N)nc4)nc3n2)CC1 [Example 28dk] |  |  | IC50 [2, 4]: 0.682 µM
51 | N#Cc1cccc(-c2nc(N3CCOCC3)c3ccc(-c4ccc(Cl)cc4)nc3n2)c1 [Example 9ab] | < 10 |  | 
52 | COc1ccc(-c2ccc3c(N4CCOC[C@@H]4C)nc(-c4cccc(CN)c4)nc3n2)cc1CO [Example 29e] |  | < 11 | 
53 | COc1ccc(-c2ccc3c(N4CCOC[C@@H]4C)nc(Nc4ccncn4)nc3n2)cc1CO [Example 28n] |  | < 11 | 
54 | COc1ccc(-c2ccc3c(N4CCOC[C@@H]4C)nc(NC(C)CN(C)C)nc3n2)cc1CO (some centres unmarked) [Example 28ct] |  | < 11 | 
55 | C[C@H]1COCCN1c1nc(N2CCOC[C@@H]2C)c2ccc(-c3ccc(F)c(CNCCF)c3)nc2n1 [Example 14ab] |  | < 11 | 
56 | COc1ccc(-c2ccc3c(N4CCOC[C@@H]4C)nc(N4CCC(Cc5ccccc5)CC4)nc3n2)cc1CO [Example 28al] |  | < 11 | 
57 | CCN(C)C(=O)c1cc(-c2ccc3c(N4CCOC[C@@H]4C)nc(N4CCOC[C@@H]4C)nc3n2)ccc1OC [Example 13u] |  | < 11 | 
58 | COC(=O)c1cncn1-c1nc(N2CCOC[C@@H]2C)c2ccc(-c3ccc(OC)c(CO)c3)nc2n1 [Example 28az] |  | < 11 | 
59 | C[C@H]1COCCN1c1nc(N2CCOC[C@@H]2C)c2ccc(-c3ccncc3)nc2n1 [Example 11ar] |  | < 11 | 
60 | COc1ccc(-c2ccc3c(N4CCOC[C@@H]4C)nc(N4CCN(CCO)CC4)nc3n2)cc1CO [Example 28ci] |  | < 0.3 | 
61 | C[C@H]1COCCN1c1nc(N2CCOC[C@@H]2C)c2ccc(-c3cccc(N)c3)nc2n1 [Example 11dr, 3-[2,4-Bis-((S)-3-methyl-morpholin-4-yl)-pyrido[2,3-d]pyrimidin-7-yl]-phenylamine] |  |  | IC50 [2, 4]: 0.0141 µM
62 | C[C@H]1COCCN1c1nc(N2CCOC[C@@H]2C)c2ccc(-c3ccc4[nH]nc(N)c4c3)nc2n1 [Example 11ds, 5-[2,4-Bis-((S)-3-methyl-morpholin-4-yl)-pyrido[2,3-d]pyrimidin-7-yl]-1H-indazol-3-ylamine] |  |  | IC50 [2, 4]: 0.0607 µM
63 | C[C@H]1COCCN1c1nc(N2CCOC[C@@H]2C)c2ccc(-c3ccc(F)c(CNC4CC4)c3)nc2n1 [Example 14v] |  | < 11 | 
64 | C[C@H]1COCCN1c1nc(N2CCOC[C@@H]2C)c2ccc(-c3cccc(C(=O)N4CC[C@@H](O)C4)c3)nc2n1 [Example 13g] |  | < 11 | 
65 | CNc1nc(N2CCOC[C@@H]2C)c2ccc(-c3ccc(OC)c(CO)c3)nc2n1 [28 bp] |  | < 11 | 
66 | COc1cncc(-c2nc(N3CCOC[C@@H]3C)c3ccc(-c4cccc(CO)c4)nc3n2)c1 [Example 29s] |  | < 11 | 
67 | C[C@H]1COCCN1c1nc(-c2ccncc2)nc2nc(-c3cccc(CO)c3)ccc12 [Example 29q] |  | < 11 | 
68 | C[C@@H]1CN(c2nc(N3CCOC[C@@H]3C)c3ccc(-c4ccncc4)nc3n2)C[C@H](C)O1 [Example 11ce] |  | < 11 | 
